# In article PMC9823811, “Anti-Microbial Activity of Aliphatic Alcohols from Chinese Black Cardamom (Amomum tsao-ko) against Mycobacterium tuberculosis H37Rv” (Plants, 2022):
# Columns and labels:
# [1] = system: M. tuberculosis H37Rv (ATCC 27294); assay: Microplate Alamar Blue Assay (MABA), MIC against replicating M. tuberculosis; type: cell-based, Mycobacterium tuberculosis; conditions: 7 days at 37 °C; for MIC: Mycobacterium tuberculosis, 168 h
# [2] = system: Vero cells (ATCC CRL-1586); conditions: African green monkey, 72 h
# [3] = system: non-replicating M. tuberculosis H37Rv_LuxABCDE; assay: Low oxygen recovery assay (LORA), MIC against non-replicating M. tuberculosis; type: cell-based, Mycobacterium tuberculosis; conditions: for MIC: Mycobacterium tuberculosis; for MIC / MIC against M. tuberculosis H37Rv, LORA: non-replicating M. tuberculosis H37Rv, low oxygen
# [4] = Cytotoxicity against Vero cells (resazurin); conditions: African green monkey
# [5] = system: Vero cells (ATCC CRL-1586); assay: Cytotoxicity against Vero cells (resazurin); conditions: Vero cells, 72 h
# [6] = MIC = lowest concentration reducing fluorescence by 90%
Molecule,"MIC [1, 6]",MIC ([1]; […]),MIC [3],IC50 at 72 h ([4]; Vero cells (ATCC CRL-1586)),other results
"OC/C=C/CCCCCCCO [Compound 2, (E)-2-decene-1,10-diol]",29.7 µg/mL,> 20 µg/mL,95.4 µg/mL,> 200 µg/mL,"Vero cytotoxicity, percentage in parentheses after the IC50 bound [2]: 25%"
"OC/C=C/CCCC/C=C/CO [Compound 5, (2E,8E)-2,8-decadiene-1,10-diol]",4.3 µg/mL,< 10 µg/mL,5.9 µg/mL,72.9 µg/mL,
"CC(=O)OC/C=C/CC/C=C/COC(C)=O [Compound 6, (2E,6E)-1,8-diacetoxy-2,6-octadiene]",26.1 µg/mL,> 20 µg/mL,> 100 µg/mL,76.8 µg/mL,
"CCCCCCC/C=C/C=O [Compound 7, (E)-decenal]",> 100 µg/mL,,> 100 µg/mL,,
"CCCCCCC/C=C/C(O)C(C)=O (stereo not drawn) [Compound 8, (E)-1-acetyl-2-decene-1-ol]",> 100 µg/mL,,> 100 µg/mL,,
"CCCCCCCCC/C=C/C(O)C(C)=O (stereo not drawn) [Compound 9, (E)-1-acetyl-2-dodecene-1-ol]",> 100 µg/mL,,> 100 µg/mL,,
"CC(C)=CCC/C(C)=C/CO [Compound 10, geraniol]",,> 100 µg/mL,> 100 µg/mL,,
"CC(=O)OC/C=C(\C)CCC=C(C)C [Compound 11, geranyl acetate]",88.6 µg/mL,> 20 µg/mL,> 100 µg/mL,,IC50 at 72 h [4]: > 200 µg/mL
"C=C[C@](C)(O)CC/C=C(\C)CCC=C(C)C [Compound 12, (3R)-(E)-nerolidol]",> 100 µg/mL,,> 100 µg/mL,,
"NNC(=O)c1ccncc1 [Isoniazid, reference compound]",0.03 µg/mL,,> 18 µg/mL,,
"CC(=O)NC[C@H]1CN(c2ccc(N3CCOCC3)c(F)c2)C(=O)O1 [Linezolid, reference compound]",0.16 µg/mL,,0.62 µg/mL,,
"CO[C@H]1/C=C/O[C@@]2(C)Oc3c(C)c(O)c4c(O)c(c(/C=N/N5CCN(C)CC5)c(O)c4c3C2=O)NC(=O)/C(C)=C\C=C\[C@H](C)[C@H](O)[C@@H](C)[C@@H](O)[C@@H](C)[C@H](OC(C)=O)[C@@H]1C [Rifampicin, reference compound]",0.025 µg/mL,,0.14 µg/mL,> 100 µg/mL,
"CC(=O)OC/C=C/CCCC/C=C/CO [Synthetic tsaokol A, tsaokol A]",1.4 µg/mL,,,> 200 µg/mL,"Vero cytotoxicity, percentage in parentheses after the IC50 bound [2]: 10%; Cytotoxicity against Vero Cells IC50 [5]: identical to those of the isolated tsaokol A (3)"
"(2E,8E)-1,10-diacetyl-2,8-decadiene-1,10-diol [Compound 4]",,,,,"MIC against M. tuberculosis H37Rv, MABA [1, 6]: 1.1 µg/mL; MIC against M. tuberculosis H37Rv, MABA ([1]; […]): lower than 10 µg/mL; MIC against M. tuberculosis H37Rv, LORA [3]: 21.6 µg/mL; Cytotoxicity against Vero Cells IC50 [5]: 143.6 µg/mL"
"(2E,8E)-1-acetyl-2,8-decadiene-1,10-diol [Compound 3]",,,,,"MIC against M. tuberculosis H37Rv, MABA [1, 6]: 0.6 µg/mL; MIC against M. tuberculosis H37Rv, MABA ([1]; […]): lower than 10 µg/mL; Ratio of non-replicating MIC (LORA) over replicating MIC (MABA) ([3]; LORA MIC relative to MABA MIC): only two-fold higher; MIC against M. tuberculosis H37Rv, LORA [3]: 1.4 µg/mL; Cytotoxicity against Vero Cells IC50 [5]: > 200 µg/mL"
"(E)-1-acetyl-8-decene-1,10-diol [Compound 1]",,,,,"MIC against M. tuberculosis H37Rv, MABA [1, 6]: 10.2 µg/mL; MIC against M. tuberculosis H37Rv, MABA ([1]; […]): lower than 10 µg/mL; MIC against M. tuberculosis H37Rv, LORA [3]: 61.5 µg/mL; Cytotoxicity against Vero Cells IC50 [5]: > 200 µg/mL"
